# Laboratory results from ChEMBL document CHEMBL1201862, “PubChem BioAssay data set” (2004).
#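 A five-concentration, 48-hour dose response in 96-well plates underlies each endpoint, interpolated linearly between surrounding concentrations. GI50: concentration for 50% inhibition of growth.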 The source made the active and inactive calls. Cut-off read from the data, not from the text of the source: active = GI50 up to about 1.1 µM and inactive = higher.
# How the values were obtained:
# Assay in all cases: growth of human tumour cells (NCI), 48 h
# M14 = system: M14
# XF498 = system: XF498
# NCI-H522 = system: NCI-H522
# CCRF-CEM = system: CCRF-CEM
# UACC-257 = system: UACC-257
# HL-60 = system: HL-60
# 786-0 = system: 786-0
# HCT-116 = system: HCT-116
# NCI-H460 = system: NCI-H460
# HOP-62 = system: HOP-62
# SNB-19 = system: SNB-19
# OVCAR-3 = system: OVCAR-3
# EKVX = system: EKVX
# U-251 = system: U-251
# OVCAR-5 = system: OVCAR-5
# M19-MEL = system: M19-MEL
# SNB-78 = system: SNB-78
# UO-31 = system: UO-31
# COLO 205 = system: COLO 205
# RXF 631 = system: RXF 631
# SF-295 = system: SF-295
# OVCAR-4 = system: OVCAR-4
# RPMI-8226 = system: RPMI-8226
# SF-539 = system: SF-539
# SNB-75 = system: SNB-75
# IGROV-1 = system: IGROV-1
# MOLT-4 = system: MOLT-4
# NCI-H23 = system: NCI-H23
# KM-20L2 = system: KM-20L2
# RXF 393 = system: RXF 393
# K562 = system: K562
# HCC 2998 = system: HCC 2998
# HOP-92 = system: HOP-92
# A549 = system: A549
# TK-10 = system: TK-10
# UACC-62 = system: UACC-62
# HCT-15 = system: HCT-15
# SK-OV-3 = system: SK-OV-3
# DMS-114 = system: DMS-114
# DLD-1 = system: DLD-1
# SR = system: SR
# SF-268 = system: SF-268
# SN12C = system: SN12C
# SK-MEL-5 = system: SK-MEL-5
# ACHN = system: ACHN
# SW-620 = system: SW-620
# LOX IMVI = system: LOX IMVI
# DMS-273 = system: DMS-273
# LXFL 529 = system: LXFL 529
# KM12 = system: KM12
# OVCAR-8 = system: OVCAR-8
# Malme-3M = system: Malme-3M
# SK-MEL-28 = system: SK-MEL-28
# HT-29 = system: HT-29
# A498 = system: A498
# NCI-H226 = system: NCI-H226
# HOP-18 = system: HOP-18
# CAKI-1 = system: CAKI-1
# SK-MEL-2 = system: SK-MEL-2
smiles,measurement,setting,value
O=C(O)c1cc2ccc(Cl)cc2c(O)c1C1=CCCCC1,GI50,M14,43.7 µM (inactive)
same,GI50,XF498,18.7 µM (inactive)
same,GI50,NCI-H522,29 µM (inactive)
same,GI50,CCRF-CEM,41.7 µM (inactive)
same,GI50,UACC-257,31.5 µM (inactive)
same,GI50,HL-60,30.8 µM (inactive)
same,GI50,786-0,52.8 µM (inactive)
same,GI50,HCT-116,37.1 µM (inactive)
same,GI50,NCI-H460,35.8 µM (inactive)
same,GI50,HOP-62,33.7 µM (inactive)
same,GI50,SNB-19,39 µM (inactive)
same,GI50,OVCAR-3,33.5 µM (inactive)
same,GI50,EKVX,43.4 µM (inactive)
same,GI50,U-251,36.9 µM (inactive)
same,GI50,OVCAR-5,54.1 µM (inactive)
same,GI50,M19-MEL,35.8 µM (inactive)
same,GI50,SNB-78,27.4 µM (inactive)
same,GI50,UO-31,34.8 µM (inactive)
same,GI50,COLO 205,67.8 µM (inactive)
same,GI50,RXF 631,32.1 µM (inactive)
same,GI50,SF-295,32.3 µM (inactive)
same,GI50,OVCAR-4,23.2 µM (inactive)
same,GI50,RPMI-8226,34.6 µM (inactive)
same,GI50,SF-539,36.6 µM (inactive)
same,GI50,SNB-75,19.4 µM (inactive)
same,GI50,IGROV-1,50 µM (inactive)
same,GI50,MOLT-4,36.4 µM (inactive)
same,GI50,NCI-H23,26.4 µM (inactive)
same,GI50,KM-20L2,51.6 µM (inactive)
same,GI50,RXF 393,36.5 µM (inactive)
same,GI50,K562,33.1 µM (inactive)
same,GI50,HCC 2998,> 100 µM (inactive)
same,GI50,HOP-92,23.2 µM (inactive)
same,GI50,A549,39.9 µM (inactive)
same,GI50,TK-10,63.8 µM (inactive)
same,GI50,UACC-62,24.5 µM (inactive)
same,GI50,HCT-15,56.8 µM
same,GI50,SK-OV-3,42.7 µM (inactive)
same,GI50,DMS-114,24.8 µM (inactive)
same,GI50,DLD-1,41.7 µM (inactive)
same,GI50,SR,57.4 µM (inactive)
same,GI50,SF-268,52.2 µM (inactive)
same,GI50,SN12C,46.8 µM (inactive)
same,GI50,SK-MEL-5,30.3 µM (inactive)
same,GI50,ACHN,65 µM (inactive)
same,GI50,SW-620,44.5 µM (inactive)
same,GI50,LOX IMVI,33 µM (inactive)
same,GI50,DMS-273,20 µM (inactive)
same,GI50,LXFL 529,35.3 µM (inactive)
same,GI50,KM12,42.4 µM (inactive)
same,GI50,OVCAR-8,40.4 µM (inactive)
same,GI50,Malme-3M,50.1 µM (inactive)
same,GI50,SK-MEL-28,66.5 µM (inactive)
same,GI50,HT-29,46.1 µM (inactive)
same,GI50,A498,32.6 µM (inactive)
same,GI50,NCI-H226,26.7 µM (inactive)
same,GI50,HOP-18,60.5 µM (inactive)
same,GI50,CAKI-1,33.2 µM (inactive)
same,GI50,SK-MEL-2,19.9 µM (inactive)
